Here are results for 1 substance from paper PMC7005675 (Molecular Cell, 2020).

This assay concerns the target T1, RsiG (Streptomyces venezuelae, UniProt F2RFR7).
T1 sequence (F2RFR7 1-199): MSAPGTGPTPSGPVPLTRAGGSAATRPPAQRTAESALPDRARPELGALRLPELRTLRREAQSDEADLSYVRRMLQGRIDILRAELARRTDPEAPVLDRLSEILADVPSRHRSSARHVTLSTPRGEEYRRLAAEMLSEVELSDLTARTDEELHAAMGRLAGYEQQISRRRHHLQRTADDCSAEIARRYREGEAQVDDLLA
The experiment in a line: fluorescence polarization. As to conditions: labelled compound; 150 mM NaCl, 25 mM Tris-HCl pH 7.5, 25°C; 1 nM probe. The format is binding.

In turn, “2′-O-(6-[Fluoresceinyl]aminohexylcarbamoyl)-cyclic diguanosine monophosphate [2′-Fluo-AHC-c-di-GMP]” showed a Kd of 6.5 ± 1.5 µM.

What is called Kd is a measure of binding affinity in units of concentration. Low values mean higher affinity, high ones lower affinity.
